Literature values in PMC2857392 (Biochemistry, 2010).

How the values were obtained:
Stx1 B-subunit (Stx1B) = details: read-out: dissociation constant (Kd) for B-subunit monomer

OC[C@H]1O[C@H](O[C@@H]2[C@H](O)[C@@H](O)[C@H](O[C@H]3[C@H](O)[C@@H](O)C(O)O[C@@H]3CO)O[C@@H]2CO)[C@H](O)[C@@H](O)[C@H]1O (stereo partly drawn) [Pk trisaccharide, Galα1-4Galβ1-4Glc]
Kd (Stx1B): 4800 µM | Kd (Stx1 B-subunit (Stx1B)): 500 to 1000 µM

globotriaosylceramide [Gb3]
Kd (Stx1B): 0.003 µM
